Measured values taken from patent US20150018384A1, “TREATMENT FOR HIGH CHOLESTEROL” (FibroGen, Inc., priority 2012, published 2015).
Entries after “also recorded” stand apart in the source; their conditions may differ. Marks after values point to notes of the source that are not given here.

Experiments:
[1] = system: subjects with end stage renal disease (ESRD); assay: ESRD subjects switched from epoetin alfa to Compound A or continued on epoetin alfa; assay type: in vivo, human; conditions: six weeks
Description: Mean total cholesterol change for the Compound A-treated subjects (all cohorts) was a decrease of 15 mg/dL compared to an increase of 18 mg/dL for the epoetin alfa treated subjects.

[2] = system: non-dialysis chronic kidney disease (CKD) patients with anemia; assay: Study 1: Phase 2 study of compound A in non-dialysis CKD patients with anemia; assay type: in vivo, human
Description: The primary objectives of this study were to evaluate the efficacy and safety of the compound in the correction of anemia (i.e. increasing hemoglobin levels) in non-dialysis CKD patients. The study included six dosing cohorts of approximately 24 subjects each. […] Cohort A and cohort B both received a weight-adjusted dose of approximately 1 mg/kg, three times a week for 16 weeks; the dosing in cohort B was reduced to twice a week once anemia was corrected. Cohort C and cohort D received a fixed dose of 50 mg or 100 mg, respectively, three times a week, for 24 weeks. Cohort E received a weight-adjusted dose of approximately 1 mg/kg twice a week, reduced to once a week once anemia was corrected. Cohort F received a fixed dose of 70 mg, three times a week.
Total cholesterol and lipid panels were measured by standard procedures.
Total cholesterol was measured from all subjects in Study 1 or Study 2 as part of the chemistry panel at prespecified time points. […] Total cholesterol decreased initially with treatment, reached a plateau where it remained during treatment, and then returned to baseline after treatment ends.
Frozen serum samples, collected from subjects in Study 1 or Study 2, were selected for the lipid panel analysis based on the following criteria: 1) with matched baseline (D1W1) and; 2) at least one other time point. The complete lipid panel includes: total cholesterol (TC), HDL, LDL-measured, Triglycerides and VLDL (Calculated). Ratio of HDL/LDL or LDL/HDL were analyzed.
A total of n=9 subjects samples were selected and assayed for the complete lipid panel as described above. Subjects on this study protocol were not required to fast nor have any diet restrictions.

[3] = system: subjects with end-stage renal disease (ESRD) receiving maintenance hemodialysis; assay: Study 2: phase 2 study of compound A vs EPO in ESRD subjects on maintenance hemodialysis; assay type: in vivo, human
Source text: A total of n=20 subjects were selected and assayed for the complete lipid panel as described above. Subjects on this study protocol were not required to fast nor have any diet restrictions.

ApoE deficient mice = assay: Cholesterol reduction and erythrogenesis in ApoE deficient mice, 4 weeks; assay type: in vivo, mouse; conditions: orally 2, 20, 60 or 100 mg/kg three times a week for 4 weeks, n=8/group
Description: Ten-week-old male apoE knockout mice (Jackson Laboratories, Bar Harbor, Me.) were fed a normal chow diet (0.02% cholesterol, 13.5% fat by weight; LabDiet). […] After 2 weeks of acclimatization, whole blood was collected for baseline measurement before administration of test reagents. […] The animals were sacrificed at end of study.
Total cholesterol and hemoglobin were measured weekly.

PHD1 = PHD1 (Homo sapiens, UniProt Q96KS0); assay: HIF prolyl hydroxylase enzyme assay, PHD1; assay type: biochemical
Source text: Suitable assay methods are well known in the art.

[4] = system: subjects with end stage renal disease (ESRD); assay: ESRD subjects switched from epoetin alfa to Compound A or continued on epoetin alfa; assay type: in vivo, human
[5] = six subjects with identical time points, FIG. 7
[6] = BL total cholesterol >200 mg/dL, visit D1W1 (baseline)
[7] = BL total cholesterol >200 mg/dL, visit W9
[8] = BL total cholesterol ≦200 mg/dL, visit D1W1 (baseline)
[9] = BL total cholesterol ≦200 mg/dL, visit W9
[10] = n=20, 9 weeks vs baseline, FIG. 8A
[11] = baseline, Compound A 3 cohorts n=74, Epoetin alfa n=22

PHD1, sequence (Q96KS0 whole entry): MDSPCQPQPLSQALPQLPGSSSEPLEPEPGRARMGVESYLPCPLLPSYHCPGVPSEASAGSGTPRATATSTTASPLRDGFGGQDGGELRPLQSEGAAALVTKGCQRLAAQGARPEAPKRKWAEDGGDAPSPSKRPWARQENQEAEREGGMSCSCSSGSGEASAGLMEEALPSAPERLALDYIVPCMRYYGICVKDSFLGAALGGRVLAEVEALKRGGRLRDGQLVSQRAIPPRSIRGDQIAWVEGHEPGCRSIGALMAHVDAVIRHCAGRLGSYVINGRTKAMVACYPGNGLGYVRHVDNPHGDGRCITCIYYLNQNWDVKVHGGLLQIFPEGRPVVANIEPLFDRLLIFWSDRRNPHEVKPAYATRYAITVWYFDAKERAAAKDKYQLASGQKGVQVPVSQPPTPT

IC50 (PHD1): 200 to 2000 nM
SMILES: Cc1nc(C(=O)NCC(=O)O)c(O)c2ccc(Oc3ccccc3)cc12 [Compound A, [(4-Hydroxy-1-methyl-7-phenoxy-isoquinoline-3-carbonyl)-amino]-acetic acid]
Total Cholesterol change ([1]; Mean (±SD), Compound A orally three times a week (n=74) or continued epoetin alfa (n=22)): −15 (38)** mg/dL | Mean total cholesterol change, decrease ([1]; all cohorts): 15 mg/dL | total cholesterol by baseline total cholesterol ≦200 or >200 mg/dL ([2]; Study 1, FIG. 5): total cholesterol is reduced in each group | total cholesterol over time ([2]; all subjects from all cohorts (n=144), during study treatment, FIG. 1): significant decrease in total cholesterol | LDL, lipid panel [2, 5]: reduce over the course of treatment | total cholesterol, lipid panel [2, 5]: reduce over the course of treatment | reduction in total cholesterol by baseline total cholesterol ≦200 or >200 mg/dL ([3]; 19-week study, FIGS. 6A and B): appears to be larger for the subjects with higher cholesterol at BL | LDL [3, 6]: 203.40 | LDL change from BL [3, 6]: 0.00 | TC [3, 6]: 275.80 | TC change from BL [3, 6]: 0.00 | LDL [3, 7]: 164.20 | LDL change from BL [3, 7]: −39.20 | TC [3, 7]: 239.20 | TC change from BL [3, 7]: −36.60 | LDL [3, 8]: 81.20 | LDL change from BL [3, 8]: 0.00 | TC [3, 8]: 157.90 | TC change from BL [3, 8]: 0.00 | LDL [3, 9]: 62.20 | LDL change from BL [3, 9]: −19.00 | TC [3, 9]: 128.20 | TC change from BL [3, 9]: −29.70 | hemoglobin levels ([3]; ESRD patients on dialysis, 0.8 to 3.0 mg/kg three times a week): effectively corrected hemoglobin levels | total cholesterol, subjects with or without prior history of hyperlipidemia and/or hypercholesterolemia ([3]; Study 2 (6 weeks), FIG. 4): reduced the total cholesterol level of subjects in similar fashion | HDL, lipid panel [3, 10]: slight decrease | LDL, lipid panel [3, 10]: significant reduction | VLDL, lipid panel [3, 10]: significant reduction | total cholesterol, lipid panel [3, 10]: significant reduction | triglycerides, lipid panel [3, 10]: significant reduction | change in total cholesterol from baseline over time ([3]; treated for 19 weeks, FIG. 2): significant decrease in total cholesterol | doses with statistically significant decreases in total cholesterol (% change) (ApoE deficient mice): 100 mg/kg | hemoglobin compared to vehicle-treated (ApoE deficient mice): statistically significant increases in hemoglobin compared to vehicle-treated at the 60 mg/kg and 100 mg/kg doses; also recorded: significant increase in hemoglobin for the 60 mg/kg and 100 mg/kg doses | total cholesterol (% change from baseline) compared to vehicle-treated (ApoE deficient mice): lower total cholesterol levels; also recorded: significant percent change in total cholesterol from baseline for the 100 mg/kg dose | LDL cholesterol change ([4]; Mean (±SD), six weeks, Compound A orally three times a week (n=74) or continued epoetin alfa (n=22)): −25 (22)** mg/dL | Mean change in LDL-C, decrease ([4]; all cohorts, six weeks): 25 mg/dL | Mean BL LDL Cholesterol [4, 11]: 101.71 mg/dL | Mean BL Total Cholesterol [4, 11]: 171.11 mg/dL | mean total cholesterol over the course of treatment ([4]; both groups stratified by BL total cholesterol ≦200 or >200 mg/dL, FIG. 16): reduction | mean LDL-C over the course of treatment ([4]; both groups stratified by BL total cholesterol ≦200 or >200 mg/dL, FIG. 17): reduction | HDL-C ([4]; six weeks): showed a decrease
